ChEMBL document CHEMBL1138166, “Synthesis and antimycobacterial activity of some alkyl [5-(nitroaryl)-1,3,4-thiadiazol-2-ylthio]propionates” (2006)
Values after ≈ are worked out from the molar mass of the structure shown. Active and inactive are the calls of the source. No cut-off for these calls is given here.

System: Mycobacterium tuberculosis
Test: Antimycobacterial activity against Mycobacterium tuberculosis H37Rv by microplate alamar blue assay
Assay type: functional
Design: Inhibition: concentration or dose not given beside the values
Conditions: for MIC: Mycobacterium tuberculosis, H37Rv

SMILES: CO[C@H]1/C=C/O[C@@]2(C)Oc3c(C)c(O)c4c(O)c(c(/C=N/N5CCN(C)CC5)c(O)c4c3C2=O)NC(=O)/C(C)=C\C=C\[C@H](C)[C@H](O)[C@@H](C)[C@@H](O)[C@@H](C)[C@H](OC(C)=O)[C@@H]1C [RIFAMPIN]
- MIC: 0.5 µg/mL (≈ 0.608 µM)

SMILES: CCOC(=O)C(C)[S+]([O-])c1nnc(-c2ncc([N+](=O)[O-])n2C)s1 (stereo not drawn)
- Activity: inactive
- Inhibition: 11%
- MIC: > 6.25 µg/mL

SMILES: COC(=O)CCSc1nnc(-c2ccc([N+](=O)[O-])s2)s1
- Activity: inactive
- Inhibition: 76%
- MIC: > 6.25 µg/mL

SMILES: COC(=O)CCSc1nnc(-c2ccc([N+](=O)[O-])o2)s1
- Activity: inactive
- Inhibition: 64%
- MIC: > 6.25 µg/mL

SMILES: CCCCOC(=O)CCSc1nnc(-c2ccc([N+](=O)[O-])o2)s1
- Activity: inactive
- Inhibition: 0%
- MIC: > 6.25 µg/mL

SMILES: CCCCOC(=O)CCSc1nnc(-c2ccc([N+](=O)[O-])s2)s1
- Activity: Active
- Inhibition: 98%
- MIC: 6.25 µg/mL (≈ 16.7 µM)

SMILES: CCOC(=O)CCSc1nnc(-c2ccc([N+](=O)[O-])s2)s1
- Activity: inactive
- Inhibition: 26%
- MIC: > 6.25 µg/mL

SMILES: CCOC(=O)C(C)Sc1nnc(-c2ccc([N+](=O)[O-])s2)s1 (stereo not drawn)
- Activity: Active
- Inhibition: 92%
- MIC: 6.25 µg/mL (≈ 18.1 µM)

SMILES: CCCOC(=O)CCSc1nnc(-c2ccc([N+](=O)[O-])o2)s1
- Activity: inactive
- Inhibition: 0%
- MIC: > 6.25 µg/mL

SMILES: CCOC(=O)CCSc1nnc(-c2ccc([N+](=O)[O-])o2)s1
- Activity: inactive
- Inhibition: 14%
- MIC: > 6.25 µg/mL

SMILES: O=C(O)CCSc1nnc(-c2ccc([N+](=O)[O-])o2)s1
- Activity: Active
- Inhibition: 95%
- MIC: 6.25 µg/mL (≈ 20.7 µM)

SMILES: CCOC(=O)C(C)[S+]([O-])c1nnc(-c2ccc([N+](=O)[O-])o2)s1 (stereo not drawn)
- Activity: inactive
- Inhibition: 6%
- MIC: > 6.25 µg/mL

SMILES: CCOC(=O)C(C)Sc1nnc(-c2ccc([N+](=O)[O-])o2)s1 (stereo not drawn)
- Activity: Active
- Inhibition: 98%
- MIC: 6.25 µg/mL (≈ 19 µM)

SMILES: CCOC(=O)C(C)Sc1nnc(-c2ncc([N+](=O)[O-])n2C)s1 (stereo not drawn)
- Activity: Active
- Inhibition: 90%
- MIC: 6.25 µg/mL (≈ 18.2 µM)

SMILES: O=C(O)CCSc1nnc(-c2ccc([N+](=O)[O-])s2)s1
- Activity: inactive
- Inhibition: 0%
- MIC: > 6.25 µg/mL

SMILES: CCOC(=O)C(C)S(=O)(=O)c1nnc(-c2ncc([N+](=O)[O-])n2C)s1 (stereo not drawn)
- Activity: Active
- Inhibition: 100%
- MIC: 3.12 µg/mL (≈ 8.31 µM)

SMILES: CCOC(=O)C(C)S(=O)(=O)c1nnc(-c2ccc([N+](=O)[O-])s2)s1 (stereo not drawn)
- Activity: inactive
- Inhibition: 82%
- MIC: > 6.25 µg/mL

SMILES: CCOC(=O)C(C)S(=O)(=O)c1nnc(-c2ccc([N+](=O)[O-])o2)s1 (stereo not drawn)
- Activity: inactive
- Inhibition: 78%
- MIC: > 6.25 µg/mL

SMILES: CCOC(=O)C(C)[S+]([O-])c1nnc(-c2ccc([N+](=O)[O-])s2)s1 (stereo not drawn)
- Activity: inactive
- Inhibition: 12%
- MIC: > 6.25 µg/mL

SMILES: CCCOC(=O)CCSc1nnc(-c2ccc([N+](=O)[O-])s2)s1
- Activity: Active
- Inhibition: 98%
- MIC: 1.56 µg/mL (≈ 4.34 µM)
